What is called IC50 is the concentration that gives 50% inhibition.

The target of data set [1] is T1, hP2X4 (human purinergic P2X receptor subtype 4) (Homo sapiens, UniProt Q99571).
T1 sequence (Q99571 1-404 isoform Q99571-2): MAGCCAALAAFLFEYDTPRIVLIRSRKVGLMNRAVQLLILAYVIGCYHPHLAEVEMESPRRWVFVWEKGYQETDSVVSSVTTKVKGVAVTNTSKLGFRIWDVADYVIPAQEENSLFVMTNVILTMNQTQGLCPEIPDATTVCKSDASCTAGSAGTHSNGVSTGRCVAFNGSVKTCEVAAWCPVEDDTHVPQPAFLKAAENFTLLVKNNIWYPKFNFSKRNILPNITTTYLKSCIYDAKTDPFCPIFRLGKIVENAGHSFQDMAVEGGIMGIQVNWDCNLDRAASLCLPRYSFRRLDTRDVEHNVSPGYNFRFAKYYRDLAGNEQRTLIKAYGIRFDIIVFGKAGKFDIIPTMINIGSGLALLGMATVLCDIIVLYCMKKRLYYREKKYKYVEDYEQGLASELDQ
Kind of data set: FLIPR assay of intracellular calcium increase induced by activation of hP2X4 expressed in HEK293 cells (agonist BZ-ATP 2.5 μM). The class given is cell-based. Particulars: HEK293 cells stably expressing hP2X4, FLIPR, read-out: P2X4 IC50. As for the experimental part: The antagonist property of the compounds disclosed herein was determined using the FLIPR (fluorescence imaging plate reader) method, wherein the compounds are inhibitors for the intracellular calcium increase induced by activation of hP2X4 (human purinergic P2X receptor subtype 4, accession No. NM_001256796.2) expressed in HEK293 cells (human renal epithelial cell line, ATCC).
HEK293 cells stably expressing hP2X4 were cultured in DMEM high glucose medium containing 10% FBS (fetal bovine serum, Biosera, FB-1058/500), 1% penicillin-streptomycin (Gibco, 15140-122) and 1 mg/mL G418 (CABIOCHE, 345810) in a cell incubator (37° C., […]). Cells at 400,000 cells/mL were seeded into a 384-well plate (10,000 cells/well) 18-24 h prior to the FLIPR experiment and then incubated overnight in a cell incubator. On the day of the experiment, the medium was discarded and the cells were washed in an FLIPR buffer (0.3 mL of probenecid (Thermo, P36400), 0.6 mL of 1 M HEPES (Invitrogen, 15630080) and 29.1 mL of HBSS (Invitrogen, 14065056) per 30 mL of the buffer). Each well was added with 20 μL of 0.5× Calcium 6 fluorescent dye (Molecular Devices, R8190) and then the cells were subjected to dye-loading incubation at 37° C. for 1.5 h. Each well was added with 10 μL of respective test compound (dissolved in DMSO at a concentration of 10 mM and serially diluted with buffer) or vehicle and the mixture was equilibrated for 30 min at room temperature. The cell plate was then placed in the FLIPR for baseline fluorescence measurements (excitation at 485 nm and emission at 525-535 nm). An agonist (BZ-ATP (Sigma, B6396) at a final concentration of 2.5 μM) or a vehicle (ultrapure water) was then added at 10 μL/well, fluorescence values were measured for 2 min at 1-second intervals, and finally the output fluorescence counts were analyzed.
(A change in cytosolic calcium serves as a functional read-out for many receptors and channels.)

Data set [2] in a line: In vitro metabolic stability, liver microsome incubation (human). Particulars: human, liver microsomes; 1 mg/mL liver microsome protein, 37° C.; read-out: T1/2 in human liver microsome min. The class given is in vitro ADME. As for the experimental part: The in vitro metabolic stability of the compounds disclosed herein was determined through incubation of liver microsomes of various species. A proper amount of test compound was added into a liver microsome reaction system (1 mg/mL liver microsome protein, 25 U/mL glucose-6 phosphate dehydrogenase, 1 mM NADP, 6 mM D-glucose 6-phosphate and 5 mM MgCl2), and then the mixture was incubated in a water bath kettle at 37° C. to start the reaction. At each time point, 100 μL of the reaction system was added into a centrifuge tube containing 400 μL of internal standard working solution (containing a 200 ng/mL solution of dexamethasone, diclofenac, tolbutamide and labetalol in acetonitrile) precooled at 0° C. so as to stop the reaction, and the mixture was then centrifuged at 10,000 g for 10 min at 4° C. The supernatant was collected for LC-MS assay so as to obtain the values of in vitro metabolic half-life of the test compounds in liver microsomes of various species.

Read-outs that look alike come from different tables or passages of the source.

`NS(=O)(=O)c1cc(NC(=O)Cc2ccccc2Cl)cc2c1cnn2CC(F)F` [Compound 12-B, 2-(2-chlorophenyl)-N-(1-(2,2-difluoroethyl)-4-sulfamoyl-1H-indazol-6-yl)acetamide]: the IC50 in data set [1] (numeric values) was determined as 21.8 nM. Further, the half-life in data set [2] was 18.1 min.

For `Cn1cc2c(S(N)(=O)=O)cc(NC(=O)Cc3ccccc3Cl)cc2n1` [Compound 3-A, 2-(2-chlorophenyl)-N-(2-methyl-4-sulfamoyl-2H-indazol-6-yl)acetamide], the IC50 in data set [1] (numeric values) came out at 4.9 nM. Also, the half-life in data set [2] is 6340 min.

Turning to `COc1cccc(Cn2ncc3c(S(N)(=O)=O)cc(NC(=O)Cc4ccccc4Cl)cc32)c1` [Compound 36-B, 2-(2-chlorophenyl)-N-(1-(3-methoxybenzyl)-4-sulfamoyl-1H-indazol-6-yl)acetamide], the IC50 in data set [1] (class symbols) is 10 to 50 nM. The half-life in data set [2] turned out to be 57.7 min.

Turning to `CCn1ncc2c(S(N)(=O)=O)cc(NC(=O)Cc3ccccc3Cl)cc21` [Compound 4-B, (4-sulfonamide-6-N-(2-chlorophenylacetyl)-1-ethyl)-indazole], the IC50 in data set [1] (class symbols) is not above 10 nM. For the same compound, in data set [2], the half-life worked out at 73.6 min.

As to `CC(C)C(C)n1cc2c(S(N)(=O)=O)cc(NC(=O)Cc3ccccc3Cl)cc2n1` (stereo not shown) [Compound 10, 2-(2-chlorophenyl)-N-(2-(3-methylbutan-2-yl)-4-sulfamoyl-2H-indazol-6-yl)acetamide], the concentration for half-maximal inhibition (IC50) in data set [1] (class symbols) was 10 to 50 nM. Also, the half-life in data set [2] stood at 24.5 min.

For the compound `CC(C)Cn1cc2c(S(N)(=O)=O)cc(NC(=O)Cc3ccccc3Cl)cc2n1` [Compound 7-A, 2-(2-chlorophenyl)-N-(2-isobutyl-4-sulfamoyl-2H-indazol-6-yl)acetamide], in data set [1] (numeric values), the IC50 stood at 4.8 nM. Also, the half-life in data set [2] turned out to be 59.3 min.

For the compound `COc1ccccc1CC(=O)Nc1cc(S(C)(=N)=O)c2cn(Cc3ccc(F)cc3)nc2c1` (stereo not shown) [Compound 140, N-(2-(4-fluorophenylmethyl)-4-(S-methylsulphonimidoyl)-2H-indazol-6-y)-2-(2-methoxyphenyl)acetamide], the IC50 in data set [1] (class symbols) fell in the range of 200 to 5000 nM.

As to `C=CCn1cc2c(S(N)(=O)=O)cc(NC(=O)Cc3ccccc3Cl)cc2n1` [Compound 14-A], the IC50 in data set [1] (class symbols) was not above 10 nM.

As to `NS(=O)(=O)c1cc(NC(=O)Cc2ccccc2Cl)cc2cn(C(F)F)nc12` [Compound 49, 2-(2-chlorophenyl)-N-(2-(difluoromethyl)-7-sulfamoyl-2H-indazol-5-yl)acetamide], in data set [1] (numeric values), the 50% inhibitory concentration (IC50) was 89.5 nM.

Turning to “N-(4-(N,N-bis(4-methoxybenzyl)sulfamoyl)-1-(4-(trifluoromethyl)benzyl)-1H-indazol-6-yl)-2-(2-chlorophenyl)acetamide [Compound 90A]”, in data set [1] (class symbols), the IC50 is not above 10 nM.

On to `COCCn1cc2c(S(N)(=O)=O)cc(NC(=O)Cc3ccccc3Cl)cc2n1` [Compound 25, 2-(2-chlorophenyl)-N-(2-(2-methoxyethyl)-4-sulfamoyl-2H-indazol-6-yl)acetamide], for which, in data set [1] (class symbols), the IC50 fell in the range of 10 to 50 nM.

As to `NS(=O)(=O)c1cc(NC(=O)Cc2ccccc2Cl)cc2c1cnn2Cc1ccc(Cl)cc1` [Compound 89A, N-(1-(4-chlorobenzyl)-4-sulfamoyl-1H-indazol-6-yl)-2-(2-chlorophenyl)acetamide], in data set [1] (class symbols), the IC50 was not above 10 nM.

On to `CC(C)C1(n2cc3c(S(N)(=O)=O)cc(NC(=O)Cc4ccccc4Cl)cc3n2)CC1` [Compound 17, 2-(2-chlorophenyl)-N-(2-(1-isopropylcyclopropyl)-4-sulfamoyl-2H-indazol-6-yl)acetamide], for which the IC50 in data set [1] (class symbols) lay within 10 to 50 nM.

Take `NS(=O)(=O)c1cc(NC(=O)Cc2ccccc2Cl)cc2c1c(Cl)nn2-c1ccc(F)cc1` [Compound 75, N-(3-chloro-1-(4-fluorophenyl)-4-sulfamoyl-1H-indazol-6-yl)-2-(2-chlorophenyl)acetamide]: the IC50 in data set [1] (class symbols) is 200 to 5000 nM.

As to `COc1ccc(Cn2cc3c(S(N)(=O)=O)cc(NC(=O)Cc4ccccc4Cl)cc3n2)cn1` [Compound 94], the IC50 in data set [1] (class symbols) is not above 10 nM.

Consider `C[S@](=N)(=O)c1cc(NC(=O)Cc2ccccc2Cl)cc2nn(Cc3ccc(F)cc3)cc12` [Compound 138, (S)-2-(2-chlorophenyl)-N-(2-(4-fluorophenylmethyl)-4-(S-methylsulfonimidoyl)-2H-indazol-6-yl)acetamide], for which the half-maximal inhibitory concentration (IC50) in data set [1] (class symbols) lay in the range of 200 to 5000 nM.

Consider `Nc1ccc(Cn2cc3c(S(N)(=O)=O)cc(NC(=O)Cc4ccccc4Cl)cc3n2)cc1` [Compound 95, N-(2-(4-aminobenzyl)-4-sulfamoyl-2H-indazol-6-yl)-2-(2-chlorophenyl)acetamide], for which the IC50 in data set [1] (class symbols) is not above 10 nM.

`Cc1ccccc1CC(=O)Nc1cc([S@@](C)(=N)=O)c2cn(Cc3ccc(F)cc3)nc2c1` [Compound 139, (S)—N-(2-(4-fluorophenylmethyl)-4-(S-methylsulfonimidoyl)-2H-indazol-6-yl)-2-(o-phenylmethyl)acetamide]: the IC50 in data set [1] (class symbols) fell in the range of 200 to 5000 nM.

On to `NS(=O)(=O)c1cc(NC(=O)Cc2ccccc2Cl)cc2c1cnn2CC1CCCC1` [Compound 31-B, 2-(2-chlorophenyl)-N-(1-(cyclopentylmethyl)-4-sulfamoyl-1H-indazol-6-yl)acetamide], for which, in data set [1] (class symbols), the concentration for half-maximal inhibition (IC50) was not above 10 nM.

As for `CC(c1ccc(F)cc1)n1cc2c(S(N)(=O)=O)cc(NC(=O)Cc3ccccc3Cl)cc2n1` (stereo not shown) [Compound 40-A, 2-(2-chlorophenyl)-N-(2-(1-(4-fluorophenyl)ethyl)-4-sulfamoyl-2H-indazol-6-yl)acetamide], in data set [1] (class symbols), the IC50 was in the range of 10 to 50 nM.

On to `NS(=O)(=O)c1cc(NC(=O)Cc2ccccc2Cl)cc2nn(CC3CC3)cc12` [Compound 15-A, 2-(2-chlorophenyl)-N-(2-(cyclopropylmethyl)-4-sulfonamido-2H-indazol-6-yl)acetamide], for which the IC50 in data set [1] (numeric values) was determined as 119 nM.

Regarding `NS(=O)(=O)c1cc(NC(=O)Cc2ccccc2Cl)cc2c1CN(C(=O)c1ccc(F)cc1)C2` [Compound 131, 2-(2-chlorophenyl)-N-(2-(4-fluorobenzoyl)-7-sulfamoylisoindolin-5-yl)acetamide], the IC50 in data set [1] (class symbols) fell in the range of 10 to 50 nM.

For the compound `NS(=O)(=O)c1cc(NC(=O)Cc2ccccc2Cl)cc2c1cnn2C(=O)C1CC1` [Compound 16-A, 2-(2-chlorophenyl)-N-(1-(cyclopropylcarbonyl)-4-sulfamoyl-1H-indazol-6-yl)acetamide], the IC50 in data set [1] (class symbols) lay within 10 to 50 nM.

Take `NS(=O)(=O)c1cc(NC(=O)Cc2ccccc2Cl)cc2cnn(C(F)F)c12` [Compound 50, 2-(2-chlorophenyl)-N-(1-(difluoromethyl)-7-sulfamoyl-1H-indazol-5-yl)acetamide]: the 50% inhibitory concentration (IC50) in data set [1] (class symbols) was 50 to 200 nM.

With “N-(2-(4-chlorobenzyl)-4-sulfamoyl-2H-indazol-6-yl)-2-(2-chlorophenyl)acetamide [Compound 89]”, the IC50 in data set [1] (class symbols) was not above 10 nM.

Turning to `CC(C)(C)n1cc2c(S(N)(=O)=O)cc(NC(=O)Cc3ccccc3Cl)cc2n1` [Compound 9, 2-(2-chlorophenyl)-N-(2-(tert-butyl)-4-sulfamoyl-2H-indazol-6-yl)acetamide], the IC50 in data set [1] (class symbols) is not above 10 nM.

Consider `NS(=O)(=O)c1cc(NC(=O)Cc2ccccc2Cl)cc2cnn(CCO)c12` [Compound 48-B, 2-(2-chlorophenyl)-N-(1-(2-hydroxyethyl)-7-sulfamoyl-1H-indazol-5-yl)acetamide], for which the IC50 in data set [1] (class symbols) was in the range of 200 to 5000 nM.

Regarding `CC(C)n1cc2c(S(N)(=O)=O)cc(NC(=O)Cc3ccccc3Cl)cc2n1` [Compound 6-A, 2-(2-chlorophenyl)-N-(2-isopropyl-4-sulfamoyl-2H-indazol-6-yl)acetamide], the IC50 in data set [1] (numeric values) was found to be 1.16 nM.

The values above are taken from patent publication US12503444B2, “Compound containing benzene ring and application thereof” (WUHAN LL SCIENCE AND TECHNOLOGY DEVELOPMENT CO., LTD., priority 2019, dated 2025).
